Experimental data taken from article PMC5983862, “Insight into small molecule binding to the neonatal Fc receptor by X-ray crystallography and 100 kHz magic-angle-spinning NMR” (PLoS Biology, 2018).
Values belong to the compound of their own block, whether it stands above or below them.

What was measured:
[1] = target: T1, neonatal Fc receptor (FcRn) α-chain, extracellular domain (FcRnECD) (Homo sapiens, UniProt P55899+P61769); assay: SPR Kd; X-ray crystal structure; […] CPMG and STD NMR fragment screen; format: binding
T1 construct: gene FCGRT; extracellular domain (ECD) (amino acids 1–297) of human FcRn α-chain, with human β2m; with β2-microglobulin (β2m, B2M)

[2] = target: T1, neonatal Fc receptor (FcRn) α-chain, extracellular domain (FcRnECD); assay: affinity measurement (SPR implied); format: binding
[3] = target: T1, neonatal Fc receptor (FcRn) α-chain, extracellular domain (FcRnECD); assay: SPR Kd; X-ray crystal structure; MAS NMR chemical-shift perturbations; format: binding
[4] = target: soluble extracellular domain of the neonatal Fc receptor (FcRnECD), heterodimer of α-chain and β2m, from insect cells (human); assay: crystal structure; FcRnECD from insect cells; crystals at pH 3 (PEG 6000, citric acid/ammonium citrate) and at pH 8.5 (Bis-Tris propane, NaI, PEG 3350); compounds soaked into pH 3 crystals; two heterodimers in the asymmetric unit

Kd [1]: ~80 µM
Compound: CC(=O)C1=C(C)Nc2ncnn2C1c1cccc(F)c1 (racemic) [UCB-FcRn-84, 1-[7-(3-fluorophenyl)-5-methyl-4,7-dihydro-[1,2,4]triazolo[1,5-a]pyrimidin-6-yl]ethanone]

Kd [2]: 2400 nM
Compound: CC(=O)C1=C(C)Nc2ncnn2C1c1cc(F)cc(F)c1 (racemic) [1-[7-(3,5-Difluorophenyl)-5-methyl-4,7-dihydro-[1,2,4]triazolo[1,5-a]pyrimidin-6-yl]ethanone]

Kd [3]: 2400 nM
Compound: COC(=O)C1=C(c2cccnc2)Nc2ncnn2C1c1cc(F)cc(F)c1 (stereo not shown) [UCB-FcRn-303, Methyl 7-(3,5-difluorophenyl)-5-(3-pyridyl)-4,7-dihydro-[1,2,4]triazolo[1,5-a]pyrimidine-6-carboxylate]

stoichiometry N [4]: 2
Compound: soluble extracellular domain of the neonatal Fc receptor (FcRnECD), heterodimer of α-chain and β2m, from insect cells (complex)
